Reference: patent publication US20240383910A1, “SMALL MOLECULE BTK DEGRADERS AND METHODS OF USE THEREOF” (Baylor College of Medicine, priority 2023, published 2024)

Columns and labels:
[1] = target: T1, BTK-Hibit (Homo sapiens, UniProt Q06187); assay: BTK degradation in BTK-Hibit knock-in Ramos cells; assay type: cell-based; details: 24 hours
T1 construct: endogenous in cells; host or cells: Ramos (BTK-Hibit knock-in)
Procedure: (§1) Ramos cells were treated with the indicated compounds at the indicated concentrations for 24 hours. Nurix and DD-03-171 were used as the controls.
(§2) To further illustrate the BTK degradation ability of PS-2, BTK-Hibit knock-in Ramos cells were treated with PS-2 for 24 hours, using Nurix and DD-03171 as controls (FIG. 6).

[2] = target: T2, BTK-Hibit (Homo sapiens, UniProt Q06187+Q96SW2); assay: BTK degradation in BTK-Hibit knock-in Ramos cells; assay type: cell-based; details: 24 hours
T2 construct: endogenous in cells; host or cells: Ramos (BTK-Hibit knock-in)
Procedure: as §1, §2

[3] = system: Mino cells; assay: cells; details: Homo sapiens, 72 h, read-out: IC50, cell growth inhibition / cell viability, Mino cells, 72 h
From the text: The cell viabilities were quantified using an Alarma Blue assay.
Dataset represents an average of n=3 replicates.

[4] = target: BTK (Homo sapiens, UniProt Q06187); assay: BTK ligand competition assay in Ramos cells (Western blotting for BTK); assay type: cell-based; parameters: host or cells: Ramos; details: 100 nM, 24 hours, Western blot
BTK, sequence (Q06187 whole entry): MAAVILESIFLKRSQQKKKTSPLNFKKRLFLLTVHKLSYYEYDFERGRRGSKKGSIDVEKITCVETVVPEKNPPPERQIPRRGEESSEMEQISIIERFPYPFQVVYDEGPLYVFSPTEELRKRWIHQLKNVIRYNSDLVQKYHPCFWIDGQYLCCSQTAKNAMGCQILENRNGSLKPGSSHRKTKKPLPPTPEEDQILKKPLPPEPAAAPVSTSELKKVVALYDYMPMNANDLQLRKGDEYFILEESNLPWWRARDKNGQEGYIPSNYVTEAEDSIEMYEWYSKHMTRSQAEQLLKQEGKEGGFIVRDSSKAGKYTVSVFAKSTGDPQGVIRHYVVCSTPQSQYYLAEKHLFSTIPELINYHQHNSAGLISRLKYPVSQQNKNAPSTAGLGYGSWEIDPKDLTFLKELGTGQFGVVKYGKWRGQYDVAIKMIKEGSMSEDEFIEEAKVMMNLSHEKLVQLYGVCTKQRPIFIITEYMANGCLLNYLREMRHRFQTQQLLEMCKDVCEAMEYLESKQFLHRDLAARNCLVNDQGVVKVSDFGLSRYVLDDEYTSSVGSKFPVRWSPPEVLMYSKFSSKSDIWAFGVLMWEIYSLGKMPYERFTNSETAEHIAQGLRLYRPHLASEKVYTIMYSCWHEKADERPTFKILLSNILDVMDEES
Procedure: Ramos cells were incubated overnight, and then the indicated compounds were added and incubated for 24 hours, followed by Western blotting for BTK degradation.
Ramos cells were incubated overnight, and then the indicated compounds were added and incubated for 24 hours, followed by Western blotting for BTK degradation (FIG. 7).

T1 sequence (Q06187 2-659 limits assumed): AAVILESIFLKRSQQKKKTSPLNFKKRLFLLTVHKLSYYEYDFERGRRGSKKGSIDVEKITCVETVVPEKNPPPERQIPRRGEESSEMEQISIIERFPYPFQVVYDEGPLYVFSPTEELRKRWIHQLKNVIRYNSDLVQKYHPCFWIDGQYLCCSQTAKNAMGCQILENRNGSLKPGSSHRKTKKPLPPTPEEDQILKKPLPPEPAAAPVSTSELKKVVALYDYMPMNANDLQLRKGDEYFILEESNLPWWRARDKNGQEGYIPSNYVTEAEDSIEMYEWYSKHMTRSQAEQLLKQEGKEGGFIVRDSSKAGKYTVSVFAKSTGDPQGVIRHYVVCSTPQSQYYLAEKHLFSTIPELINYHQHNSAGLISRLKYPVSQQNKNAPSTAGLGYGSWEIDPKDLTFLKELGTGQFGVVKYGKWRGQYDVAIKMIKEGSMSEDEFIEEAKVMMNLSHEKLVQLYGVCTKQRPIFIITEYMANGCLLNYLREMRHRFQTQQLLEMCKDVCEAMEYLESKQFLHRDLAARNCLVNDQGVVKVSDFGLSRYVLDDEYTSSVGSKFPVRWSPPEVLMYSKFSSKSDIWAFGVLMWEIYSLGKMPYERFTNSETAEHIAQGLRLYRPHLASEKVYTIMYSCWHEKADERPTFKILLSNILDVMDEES
T1 sequence (Q96SW2 whole entry, further chain): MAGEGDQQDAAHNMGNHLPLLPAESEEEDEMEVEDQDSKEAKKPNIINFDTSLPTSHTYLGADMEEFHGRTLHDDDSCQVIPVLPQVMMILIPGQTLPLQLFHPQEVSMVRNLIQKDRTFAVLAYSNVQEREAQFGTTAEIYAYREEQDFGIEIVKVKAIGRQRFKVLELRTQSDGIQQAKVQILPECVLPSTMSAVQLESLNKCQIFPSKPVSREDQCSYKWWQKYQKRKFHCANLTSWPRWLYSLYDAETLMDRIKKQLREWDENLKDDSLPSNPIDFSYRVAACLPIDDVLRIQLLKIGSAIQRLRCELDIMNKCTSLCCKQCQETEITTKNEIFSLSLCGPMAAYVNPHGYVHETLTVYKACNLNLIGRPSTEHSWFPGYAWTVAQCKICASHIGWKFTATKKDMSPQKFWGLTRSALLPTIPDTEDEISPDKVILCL
T1 sequence (Q16531 whole entry partner): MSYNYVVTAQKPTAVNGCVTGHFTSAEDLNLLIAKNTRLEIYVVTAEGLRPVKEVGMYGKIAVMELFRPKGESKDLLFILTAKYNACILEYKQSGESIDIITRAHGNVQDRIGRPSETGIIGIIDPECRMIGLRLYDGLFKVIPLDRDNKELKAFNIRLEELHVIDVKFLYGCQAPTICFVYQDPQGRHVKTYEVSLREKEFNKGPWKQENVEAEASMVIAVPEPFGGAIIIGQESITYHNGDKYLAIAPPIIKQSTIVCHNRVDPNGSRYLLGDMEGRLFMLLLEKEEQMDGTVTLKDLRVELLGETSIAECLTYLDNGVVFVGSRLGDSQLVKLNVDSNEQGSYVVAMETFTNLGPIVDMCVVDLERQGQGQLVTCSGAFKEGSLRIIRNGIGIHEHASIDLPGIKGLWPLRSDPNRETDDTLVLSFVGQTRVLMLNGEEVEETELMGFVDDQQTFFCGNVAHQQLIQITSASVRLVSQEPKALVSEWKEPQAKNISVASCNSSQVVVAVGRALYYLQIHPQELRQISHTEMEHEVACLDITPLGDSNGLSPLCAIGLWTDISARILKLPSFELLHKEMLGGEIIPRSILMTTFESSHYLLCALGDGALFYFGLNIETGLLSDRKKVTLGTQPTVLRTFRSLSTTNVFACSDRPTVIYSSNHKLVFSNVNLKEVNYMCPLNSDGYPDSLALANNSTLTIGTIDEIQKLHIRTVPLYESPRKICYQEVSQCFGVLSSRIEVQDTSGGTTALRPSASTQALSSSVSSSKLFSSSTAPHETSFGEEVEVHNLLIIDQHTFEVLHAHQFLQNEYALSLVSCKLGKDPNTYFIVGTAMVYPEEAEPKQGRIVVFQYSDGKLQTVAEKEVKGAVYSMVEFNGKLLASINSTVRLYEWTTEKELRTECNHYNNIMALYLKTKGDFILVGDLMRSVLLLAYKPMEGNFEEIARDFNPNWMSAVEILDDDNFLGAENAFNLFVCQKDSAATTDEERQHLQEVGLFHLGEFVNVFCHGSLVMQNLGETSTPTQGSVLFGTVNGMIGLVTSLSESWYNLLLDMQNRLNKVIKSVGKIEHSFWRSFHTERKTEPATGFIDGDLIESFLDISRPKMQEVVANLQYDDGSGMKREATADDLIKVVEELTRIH
T2 sequence (Q06187 2-659 limits assumed): as the sequence (Q06187 2-659 limits assumed) above
T2 sequence (Q96SW2 whole entry): as the sequence (Q96SW2 whole entry, further chain) above
T2 sequence (Q16531 whole entry partner): as the sequence (Q16531 whole entry partner) above

O=C1CCC(N2C(=O)c3cccc(NCC(=O)N4CCN(c5ccc(Nc6nccc(Oc7ccccc7)n6)cc5)CC4)c3C2=O)C(=O)N1 (stereo not shown) [PS-2, 2-(2,6-Dioxopiperidin-3-yl)-4-((2-oxo-2-(4-(4-((4-phenoxypyrimidin-2-yl)amino)phenyl)piperazin-1-yl)ethyl)amino)isoindoline-1,3-dione]
DC50 [1]: 3.75 nM | Dmax [2]: 84.7% | IC50 [3]: 77 nM | BTK degradation at 100 nM [4]: Most BTK protein was degraded
